Experimental data published in US10206937B2, “Boronic acid derivatives and therapeutic uses thereof” (Qpex Biopharma, Inc., priority 2014, dated 2019).

Test system: strains of Enterobacteriaceae producing various carbapenemases (class A, D and B; 104 strains)
Assay: Antibiotics potentiation by Compound 27 (MIC; meropenem, doripenem, ertapenem, cefepime)
Assay type: cell-based
Conditions: + 27 = with Compound 27 at fixed 4 μg/ml

Question: How did the MIC (strain CF1012 Citrobacter freundii (KPC-2)) turn out when `C[C@@H](O)[C@H]1C(=O)N2C(C(=O)O)=C(S[C@@H]3CN[C@H](C(=O)N(C)C)C3)[C@H](C)[C@H]12` [M] was run?
Answer: Y (MIC of 1 μg/mL to 10 μg/mL)

Question: What about the MIC (strain CF1021 Citrobacter freundii (CMY-type; VIM-1)) of the same molecule?
Answer: Y (MIC of 1 μg/mL to 10 μg/mL)

Question: What about the MIC (strain CF1022 Citrobacter freundii (SHV-12(2be), TEM-OSBL(2b); IMP-8)) of the same molecule?
Answer: Y (MIC of 1 μg/mL to 10 μg/mL)

Question: What about the MIC (strain CF1023 Citrobacter freundii (SHV-12(2be), TEM-OSBL(2b); CTX-M-3; CMY-34; NDM-1)) of the same molecule?
Answer: Z (MIC of greater than 10 μg/mL)

Question: And the MIC (strain CL1080 Enterobacter cloacae (IMP-1))?
Answer: Y (MIC of 1 μg/mL to 10 μg/mL)

Question: And the MIC (strain EA1019 Enterobacter aerogenes (SHV-5, VIM-1))?
Answer: Z (MIC of greater than 10 μg/mL)

Question: And the MIC (strain EC1007 Escherichia coli (KPC-3))?
Answer: X (MIC of less than 1 μg/mL)

Question: What about the MIC (strain EC1061 Escherichia coli (NDM-1, CMY-6)) of the same molecule?
Answer: Z (MIC of greater than 10 μg/mL)

Question: And the MIC (strain EC1062 Escherichia coli (OXA-48, CTX-M-15))?
Answer: X (MIC of less than 1 μg/mL)

Question: What about the MIC (strain EC1064 Escherichia coli (NDM-1, CMY-6, CTX-M-15)) of the same molecule?
Answer: Z (MIC of greater than 10 μg/mL)

Question: What about the MIC (strain EC1065 Escherichia coli (IMP-1)) of the same molecule?
Answer: Y (MIC of 1 μg/mL to 10 μg/mL)

Question: And the MIC (strain EC1068 Escherichia coli (VIM-1))?
Answer: Z (MIC of greater than 10 μg/mL)

Question: And the MIC (strain EC1069 Escherichia coli (CTX-M-27; NDM-1))?
Answer: Z (MIC of greater than 10 μg/mL)

Question: And the MIC (strain EC1070 Escherichia coli (TEM-OSBL(2b); CMY-42; NDM-5))?
Answer: Z (MIC of greater than 10 μg/mL)

Question: And the MIC (strain EC1072 Escherichia coli (CTX-M-3; NDM-1))?
Answer: Z (MIC of greater than 10 μg/mL)

Question: What about the MIC (strain ECL1004 Enterobacter cloacae (NMC-A)) of the same molecule?
Answer: Y (MIC of 1 μg/mL to 10 μg/mL)

Question: What about the MIC (strain ECL1026 Enterobacter cloacae (KPC-2, TEM-1)) of the same molecule?
Answer: Y (MIC of 1 μg/mL to 10 μg/mL)

Question: What about the MIC (strain ECL1036 Enterobacter cloacae (KPC-3, TEM-1)) of the same molecule?
Answer: Y (MIC of 1 μg/mL to 10 μg/mL)

Question: What about the MIC (strain ECL1045 Enterobacter cloacae (VIM-1)) of the same molecule?
Answer: Y (MIC of 1 μg/mL to 10 μg/mL)

Question: And the MIC (strain ECL1055 Enterobacter cloacae (KPC-3, TEM))?
Answer: Y (MIC of 1 μg/mL to 10 μg/mL)

Question: And the MIC (strain ECL1057 Enterobacter cloacae (NDM-1, TEM-1, CTX-M-15))?
Answer: Z (MIC of greater than 10 μg/mL)

Question: And the MIC (strain ECL1058 Enterobacter cloacae (KPC-3, SHV-11, TEM-1))?
Answer: Z (MIC of greater than 10 μg/mL)

Question: And the MIC (strain ECL1059 Enterobacter cloacae (KPC-3, SHV-12, TEM-1))?
Answer: Y (MIC of 1 μg/mL to 10 μg/mL)

Question: And the MIC (strain ECL1061 Enterobacter cloacae (KPC-3, Hyper AmpC expression))?
Answer: Z (MIC of greater than 10 μg/mL)

Question: And the MIC (strain ECL1082 Enterobacter cloacae (VIM-1))?
Answer: Z (MIC of greater than 10 μg/mL)

Question: And the MIC (strain ECL1084 Enterobacter cloacae (CTX-M-15; ACT-16; NDM-1))?
Answer: Z (MIC of greater than 10 μg/mL)

Question: And the MIC (strain ECL1085 Enterobacter cloacae (SHV-31(2be), TEM-1(2b); CTX-M-15; NDM-1))?
Answer: Z (MIC of greater than 10 μg/mL)

Question: What about the MIC (strain ECL1086 Enterobacter cloacae (VIM-31, OXA-48(c))) of the same molecule?
Answer: Y (MIC of 1 μg/mL to 10 μg/mL)

Question: And the MIC (strain ECL1087 Enterobacter cloacae (VIM-1))?
Answer: Z (MIC of greater than 10 μg/mL)

Question: And the MIC (strain ECL1088 Enterobacter cloacae (TEM-1(2b); CTX-M-14; ACT-type; VIM-1))?
Answer: Z (MIC of greater than 10 μg/mL)

Question: And the MIC (strain ECL1089 Enterobacter cloacae (ACT-type; IMP-1))?
Answer: Z (MIC of greater than 10 μg/mL)

Question: What about the MIC (strain ECL1090 Enterobacter cloacae (TEM-1(2b); CTX-M-22; ACT-type; IMP-8)) of the same molecule?
Answer: Y (MIC of 1 μg/mL to 10 μg/mL)

Question: And the MIC (strain ECL1091 Enterobacter cloacae (VIM-1))?
Answer: Z (MIC of greater than 10 μg/mL)

Question: What about the MIC (strain ECL1092 Enterobacter cloacae (TEM-OSBL(2b); ACT-32; VIM-1)) of the same molecule?
Answer: Y (MIC of 1 μg/mL to 10 μg/mL)

Question: What about the MIC (strain ECL1093 Enterobacter cloacae (TEM-OSBL(2b); ACT-32; VIM-1)) of the same molecule?
Answer: Y (MIC of 1 μg/mL to 10 μg/mL)

Question: And the MIC (strain ECL1094 Enterobacter cloacae (VIM-1))?
Answer: Z (MIC of greater than 10 μg/mL)

Question: And the MIC (strain ECL1096 Enterobacter cloacae (CMY-4, VIM-4, OXA-48(c)))?
Answer: Y (MIC of 1 μg/mL to 10 μg/mL)

Question: What about the MIC (strain ECL1097 Enterobacter cloacae (SHV-31(2be), TEM-OSBL(2b); CTX-M-15; ACT-31; NDM-1)) of the same molecule?
Answer: Z (MIC of greater than 10 μg/mL)

Question: What about the MIC (strain ECL1098 Enterobacter cloacae (TEM-OSBL(2b); DHA-1; ACT-16; NDM-1)) of the same molecule?
Answer: Z (MIC of greater than 10 μg/mL)

Question: What about the MIC (strain KP1001 Klebsiella pneumoniae (KPC TEM SHV)) of the same molecule?
Answer: Z (MIC of greater than 10 μg/mL)

Question: And the MIC (strain KP1002 Klebsiella pneumoniae (KPC TEM SHV))?
Answer: Y (MIC of 1 μg/mL to 10 μg/mL)

Question: What about the MIC (strain KP1003 Klebsiella pneumoniae (KPC TEM SHV)) of the same molecule?
Answer: Y (MIC of 1 μg/mL to 10 μg/mL)

Question: What about the MIC (strain KP1004 Klebsiella pneumoniae (KPC-2, TEM-1, SHV-11)) of the same molecule?
Answer: Z (MIC of greater than 10 μg/mL)

Question: And the MIC (strain KP1008 Klebsiella pneumoniae (KPC-2))?
Answer: Y (MIC of 1 μg/mL to 10 μg/mL)

Question: And the MIC (strain KP1014 Klebsiella pneumoniae (VIM-1, TEM, SHV))?
Answer: Y (MIC of 1 μg/mL to 10 μg/mL)

Question: What about the MIC (strain KP1054 Klebsiella pneumoniae (VIM-1, SHV-11)) of the same molecule?
Answer: Z (MIC of greater than 10 μg/mL)

Question: And the MIC (strain KP1059 Klebsiella pneumoniae (VIM-1, SHV-11))?
Answer: Z (MIC of greater than 10 μg/mL)

Question: What about the MIC (strain KP1061 Klebsiella pneumoniae (KPC-3, SHV-11, TEM-1)) of the same molecule?
Answer: Z (MIC of greater than 10 μg/mL)

Question: What about the MIC (strain KP1064 Klebsiella pneumoniae (KPC-2, SHV-11, TEM-1)) of the same molecule?
Answer: Z (MIC of greater than 10 μg/mL)

Question: What about the MIC (strain KP1065 Klebsiella pneumoniae (VIM-1, SHV-11)) of the same molecule?
Answer: Y (MIC of 1 μg/mL to 10 μg/mL)

Question: What about the MIC (strain KP1070 Klebsiella pneumoniae (KPC-2, SHV-11, TEM-1)) of the same molecule?
Answer: Z (MIC of greater than 10 μg/mL)

Question: And the MIC (strain KP1074 Klebsiella pneumoniae (KPC-3, SHV-11, TEM))?
Answer: Z (MIC of greater than 10 μg/mL)
